Data published in US8598314B2 (priority 2007, dated 2013).
Read-outs that look alike come from different tables or passages of the source. Blank lines part the entries; values can stand above or below the compound they belong to. Where no end group is shown, it is not given here. [ ]: non-standard residue; d: D form. NMeY = CN[C@@H](Cc1ccc(O)cc1)C(=O)O

What was measured:
[1] = target: T1, ACE from rabbit lung (Oryctolagus cuniculus, UniProt P12822); assay: ACE inhibition assay; type: biochemical
T1 construct: ACE from rabbit lung; purchased Sigma Chemical Co; host or cells: rabbit lung tissue
T1 sequence (P12822 34-1310): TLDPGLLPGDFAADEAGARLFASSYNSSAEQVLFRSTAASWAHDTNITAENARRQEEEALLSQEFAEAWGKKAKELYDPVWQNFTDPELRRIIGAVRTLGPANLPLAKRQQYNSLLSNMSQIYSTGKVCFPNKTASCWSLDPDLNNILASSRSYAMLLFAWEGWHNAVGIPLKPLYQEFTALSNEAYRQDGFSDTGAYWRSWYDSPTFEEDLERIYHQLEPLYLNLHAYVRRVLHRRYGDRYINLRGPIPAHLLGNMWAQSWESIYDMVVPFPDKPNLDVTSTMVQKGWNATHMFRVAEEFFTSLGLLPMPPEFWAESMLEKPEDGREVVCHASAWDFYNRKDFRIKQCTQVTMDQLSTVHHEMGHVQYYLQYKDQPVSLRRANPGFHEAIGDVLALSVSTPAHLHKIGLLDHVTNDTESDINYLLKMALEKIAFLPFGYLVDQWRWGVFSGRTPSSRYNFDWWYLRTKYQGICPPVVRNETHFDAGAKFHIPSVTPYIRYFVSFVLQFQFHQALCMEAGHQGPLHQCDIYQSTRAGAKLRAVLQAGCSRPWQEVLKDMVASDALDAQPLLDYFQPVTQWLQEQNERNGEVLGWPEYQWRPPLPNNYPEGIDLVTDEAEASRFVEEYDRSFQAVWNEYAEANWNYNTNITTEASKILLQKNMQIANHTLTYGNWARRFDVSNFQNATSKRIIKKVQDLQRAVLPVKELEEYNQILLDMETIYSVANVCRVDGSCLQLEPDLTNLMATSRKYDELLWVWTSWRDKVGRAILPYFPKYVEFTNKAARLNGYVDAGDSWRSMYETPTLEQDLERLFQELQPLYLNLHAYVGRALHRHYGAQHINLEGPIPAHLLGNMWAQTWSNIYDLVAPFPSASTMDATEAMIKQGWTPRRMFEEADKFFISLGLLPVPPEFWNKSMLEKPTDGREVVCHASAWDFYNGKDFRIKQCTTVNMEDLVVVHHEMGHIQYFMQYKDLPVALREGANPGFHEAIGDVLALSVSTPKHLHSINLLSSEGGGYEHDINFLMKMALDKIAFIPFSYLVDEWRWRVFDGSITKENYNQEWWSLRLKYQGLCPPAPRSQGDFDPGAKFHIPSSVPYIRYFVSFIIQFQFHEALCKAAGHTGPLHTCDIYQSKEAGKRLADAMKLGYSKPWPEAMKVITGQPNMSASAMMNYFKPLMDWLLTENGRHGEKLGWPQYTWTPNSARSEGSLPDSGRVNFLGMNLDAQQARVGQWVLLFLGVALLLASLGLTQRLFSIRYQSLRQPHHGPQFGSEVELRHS
Description: Peptide-ACE peptidase inhibitor conjugate compounds were assessed in an ACE inhibition assay using purified ACE enzyme and chromogenic substrates. An ACE stock solution was prepared by dissolving 0.1 unit of enzyme (ACE from rabbit lung, Sigma Chemical Co., St. Louis, Mo.) in 0.640 mL of HEPES buffer (0.1 M, pH=8). A 2 mM stock solution of substrate (N-benzyloxycarbonyl-Phe-His-Leu-OH) dissolved in methanol. The ACE inhibitor compounds were dissolved in phosphate buffer (0.1 M, pH=8) at concentrations of 0.0, 1, 10, 20, 60 and 100 μM. For the inhibition assay, six 2 mL microcentrifuge tubes were prepared containing 1.45 mL of phosphate buffer pH=8, 0.05 mL of 10% NaCl and 0.015 mL of substrate solution. To each microcentrifuge tube was added 0.015 mL of one of the ACE inhibitor compound's stock solutions. The solutions were heated at 37° C. for about 5 minutes. The reaction was started by the addition of 5 μL of the ACE stock solution to each tube mixture (30 seconds in between). The reaction mixtures were incubated at 37° C. After 5 min, 10 min, 30 min and 60 min., aliquots of 100 μL were taken from each tube (each sample was taken in intervals of 30 seconds). Tubes containing the 100 μL sample were floated in a boiling water bath for 5 min. and then cooled. The reaction samples were then treated with 20 μL of 2M NaOH and 20 μL of 0.1% phthaldialdehyde solution. The tubes were shaken for 4 minutes and 10 μL of 6 M HCl were added. […] Initial rates were determined from linear portions of product release curves. Starting substrate concentration in all assays was 20 μM. Apparent binding constants (Kd^app or Ki^app) of inhibitors to ACE were determined by fitting inhibition curves (initial rate vs. inhibitor concentration) to equation:
[formula] where v0 is reaction rate in the absence of inhibitor and [I]-inhibitor concentration. Fits were done by least-squares method using KaleidaGraph 3.6 (Synergy Software, Reading Pa.).

[2] = tested on: plasma carboxypeptidase; assay: Carboxypeptidase activity assay, PYY(3-36) in human plasma; type: biochemical; details: for inhibition of plasma carboxypeptidase activity (in words): protease inhibitor at a final concentration of 1 mM; for inhibition of the formation of PYY(3-35) (in words): 0.5 mM in human plasma, FIGS. 10-12
Description: Carboxypeptidase activity assays were performed in the presence of various agents to test for carboxypeptidase inhibitor activity of the agents.
The remainder of the sample was placed in an incubator at 37° C., mixing at 600 RPM for sixty minutes. At 10 minute intervals, a 100 μl sample of the mixture was removed and transferred to a separate microcentrifuge tubes. Following the transfer of the 100 μL sample at the zero time point and each 10 minute interval, each collected sample was extracted by slow addition of 100 μl cold 0.2% formic acid:acetonitrile, while mixing. After addition of the acetonitrile solution, the sample was vortex mixed at high speed for 15 seconds. The extracted samples were stored at −20° C. for at least 20 minutes and then centrifuged at 11,000×g for 10 minutes at 5° C. The supernatant of each sample was transferred to a new microcentrifuge tube, centrifuged again, and finally transferred for LC/MS analysis. The MS analysis was a Q1 single ion monitoring method that detects the most intense ion of the parent molecule and the peptide fragment of interest.

Compound: CC[C@H](C)[C@H](NC(=O)[C@H](Cc1ccccc1)NC(=O)[C@H](CC(C)C)NC(=O)[C@H](CCCNC(=N)N)NC(=O)[C@@H](NC(=O)[C@H](C)NC(=O)[C@H](CCC(=O)O)NC(=O)[C@H](CCC(=O)O)NC(=O)[C@H](CCC(=O)O)NC(=O)[C@H](CC(C)C)NC(=O)[C@H](CCC(N)=O)NC(=O)[C@H](CCCCN)NC(=O)[C@H](CO)NC(=O)[C@H](CC(C)C)NC(=O)[C@H](CC(=O)O)NC(=O)[C@H](CO)NC(=O)[C@@H](NC(=O)[C@H](Cc1ccccc1)NC(=O)[C@@H](NC(=O)CNC(=O)[C@H](CCC(=O)O)NC(=O)CNC(=O)[C@@H](N)Cc1c[nH]cn1)[C@@H](C)O)[C@@H](C)O)C(C)C)C(=O)N[C@@H](CCC(=O)O)C(=O)N[C@@H](Cc1ccccc1)C(=O)N[C@@H](CC(C)C)C(=O)N[C@@H](CCCCN)C(=O)N[C@@H](CC(N)=O)C(=O)NCC(=O)NCC(=O)NCCCC[C@H](NC(CCc1ccccc1)C(=O)O)C(=O)N1CCCC1C(=O)O (stereo partly drawn) [3633/42/1, [^14Leu,^25Phe]Exendin-4(1-28)-Gly-Gly-CONH-Lisinopril diacid]
IC50 [1]: 1500 nM

Compound: NCCc1ccc(S(=O)(=O)F)cc1 [AEBSF, 4-(2-aminoethyl)-bezenesulfonylfluoride, reference compound]
inhibition of plasma carboxypeptidase activity (in words) [2]: inhibited

IC50 ([1]; substrate N-benzyloxycarbonyl-Phe-His-Leu-OH 20 μM, read-out: ACE inhibition IC50): 700 nM
Compound: CC[C@H](C)[C@H](NC(=O)[C@H](CC(C)C)NC(=O)[C@H](Cc1c[nH]c2ccccc12)NC(=O)[C@H](CC(=O)O)NC(=O)[C@@H](NC(=O)[C@H](Cc1ccccc1)NC(=O)[C@H](CCC(=O)O)NC(=O)[C@H](CCCCN)NC(=O)[C@H](C)NC(=O)[C@H](C)NC(=O)[C@H](CCCCN)NC(=O)[C@H](CCC(=O)O)NC(=O)[C@H](CC(=O)O)NC(=O)[C@H](CC(C)C)NC(=O)[C@H](CCC(N)=O)NC(=O)[C@H](CCC(N)=O)NC(=O)[C@@H](NC(=O)[C@@H](NC(=O)[C@H](CC(=O)O)NC(=O)[C@H](CO)NC(=O)[C@@H](NC(=O)[C@H](Cc1ccccc1)NC(=O)[C@@H](NC(=O)CNC(=O)[C@H](CCC(=O)O)NC(=O)[C@H](C)NC(=O)[C@@H](N)Cc1c[nH]cn1)[C@@H](C)O)[C@@H](C)O)C(C)C)[C@@H](C)O)[C@@H](C)CC)C(=O)N[C@@H](CC(N)=O)C(=O)NCC(=O)NCC(=O)N1CCC[C@H]1C(=O)N[C@@H](CO)C(=O)N[C@@H](CCCCN)C(=O)N[C@@H](CCC(=O)O)C(=O)N[C@H](C(=O)N[C@H](C(=O)N[C@@H](CO)C(=O)NCCOCCOCCOCC(=O)NCCOCCOCC(=O)NCCCC[C@H](NC(CCc1ccccc1)C(=O)O)C(=O)N1CCC[C@H]1C(=O)O)[C@@H](C)CC)[C@@H](C)CC (stereo partly drawn) [Compound 5713]

inhibition of plasma carboxypeptidase activity (in words) [2]: not
Compound: O=C(O)CN(CCN(CC(=O)O)CC(=O)O)CC(=O)O [EDTA, reference compound]

Compound: NCCCC[C@H](N[C@@H](CCc1ccccc1)C(=O)O)C(=O)N1CCC[C@H]1C(=O)O [Lisinopril, reference compound]
IC50 ([1]; commercial lisinopril, read-out: ACE inhibition IC50): 1.3 nM
IC50 ([1]; synthesized lisinopril, read-out: ACE inhibition IC50): 2.8 nM

Compound: CNC(Cc1ccc(O)cc1)C(N)=O (stereo not drawn) [N-methyl-Tyr-NH2]
inhibition of the formation of PYY(3-35) (in words) [2]: did not inhibit

inhibition of plasma carboxypeptidase activity (in words) [2]: not
Compound: CC(C)C[C@H](NP(=O)(O)O[C@@H]1O[C@@H](C)[C@H](O)[C@@H](O)[C@H]1O)C(=O)N[C@@H](Cc1c[nH]c2ccccc12)C(=O)O [phosphoramidon, reference compound]

Compound: ^36N-methyl-Tyr-amide-PYY(22-36) (ASLRHYLNLVTRQR[NMeY]-NH2; N-terminus assumed; SMILES CC(C)C[C@H](NC(=O)[C@H](CO)NC(=O)[C@H](C)N)C(=O)N[C@@H](CCCNC(=N)N)C(=O)N[C@@H](Cc1c[nH]cn1)C(=O)N[C@@H](Cc1ccc(O)cc1)C(=O)N[C@@H](CC(C)C)C(=O)N[C@@H](CC(N)=O)C(=O)N[C@@H](CC(C)C)C(=O)N[C@H](C(=O)N[C@H](C(=O)N[C@@H](CCCNC(=N)N)C(=O)N[C@@H](CCC(N)=O)C(=O)N[C@@H](CCCNC(=N)N)C(=O)N(C)[C@@H](Cc1ccc(O)cc1)C(N)=O)[C@@H](C)O)C(C)C) [N-terminal truncation of 36N-methyl-Tyr-amide-PYY(3-36)]
inhibition of the formation of PYY(3-35) (in words) [2]: measurable but lower activity
